The values that follow come from the pKa sets of Baltruschat and Czodrowski (2020).

Broadly, the pKa is the pH at which an ionisable group is half protonated. A low value points to a group that gives up its proton readily. `N#CCCN(CCC#N)c1nnn[nH]1` yielded a pKa (acidic group) of 4.85. The compound `NCCCCCCC#CC#CCCC(=O)[O-]` yielded a pKa (basic group) of 10.7.

`O=C(C[n+]1ccccc1)c1ccccc1`: for the setting “acidic group”, the pKa was 10.9.

Take `O=S1(=O)Nc2cccc3cccc1c23`: the pKa (acidic group) worked out at 6.2. Take `[NH3+][C@H]1CCC[C@@H](C(=O)O)C1`: the pKa (acidic group) amounted to 3.7. With `CC(N)CCCc1ccccc1` (stereo unspecified), under “basic group”, the pKa is 9.99. With `[O-]c1c(Cl)c(Cl)cc(Cl)c1CN1CCOCC1`, the pKa (basic group) was found to be 8.23. `[NH3+]CCCc1ccccn1`: for the setting “basic group”, the pKa came to 4.98. In the case of `O=S(=O)([O-])c1ccc(O)c2cn[nH]c12`, the pKa (acidic group) came to 7.6. In turn, `[S-]c1ccncn1` displayed a pKa (basic group) of 6.7.

Consider `Nc1c2c(ncn2Cc2ccccc2)nc[n+]1[O-]`, for which the pKa is, setting by setting: (acidic group) 11; (basic group) 2.4. `C[NH+](C)CCc1ccccc1O` came in with a pKa (acidic group) of 8.75. On the same count and under the same terms, the result for `C[n+]1cc(O)ccn1` reads 1.74. With `Cc1ccn(-c2cccc[nH+]2)n1`, the pKa (basic group) was -3.9. The compound `CCCCCCCCc1c(-c2ccccc2)nn(-c2ccccc2)c1O` registered a pKa (acidic group) of 7.5. Still for that read-out and setting: the result for `Cc1ccc(O)cc1Cc1cc([N+](=O)[O-])ccc1O` reads 7.03; that for `CC(=O)CC=O`, 6.12; that for `Cn1cnc(C(=O)O)c1C(=O)O`, -0.56. Regarding `COc1ccc(CON)cc1`, under “basic group”, the pKa is 4.42. For `CC1(C)CC(=O)C2=C(C1)NC1=C(C2)C(=O)CC(C)(C)C1`, the pKa (acidic group) came out at 3.6. On to `CC(C)N/C=[NH+]/c1ccc(-c2cn(C)cn2)cc1`, for which, under “basic group”, the pKa was found to be 5.39. As for `O=C(O)c1cncs1`, the pKa (acidic group) worked out at 2.99. In the case of `CCN(CC)CC(=O)Nc1ccc(C)cc1`, the pKa (basic group) was 8.13.

In turn, `[O-]c1ccc(F)cc1CN1CCCCC1` had a pKa (basic group) of 11.3.

For `CC(O)(c1ccccc1)C(C(=O)O)c1ccc(-c2ccccc2)cc1` (stereo unspecified), where the note is “acidic group”, the pKa was 3.38.

Under “acidic group”, `Oc1nc2cc3ccccc3cc2[nH]1` gave a pKa of 11.6.

`Cc1cncc(C)n1` displayed a pKa (basic group) of 2.11.

`Cc1cccc(C)c1NC(=O)CN1CCCCC1` returned a pKa (basic group) of 7.6.

Take `CC[Se](=O)O`: for the setting “acidic group”, the pKa was 5.28. Still for that read-out and setting: next, `O=C1NC(=O)C(Cc2ccccc2)N1` (stereo unspecified): 9.03; `CC/C([N+](=O)[O-])=[N+](/[O-])O`: 4.1. Same read-out and setting: next, `Nc1nc2nc[nH]c2c(O)[nH+]1`: 3.25; `O=C(O)[C@@]1(Cl)[C@@H]2CCC[C@@H]21`: 3.03. `CN(C)c1ccc2cc3ccc(N(C)C)cc3[nH+]c2c1` displayed a pKa (basic group) of 0.4. `O=[N+]([O-])c1cccc(S(=O)(=O)O)c1` gave a pKa (acidic group) of -7.1. In turn, `CC(=O)Oc1cccc2cccc(O)c12` showed a pKa (acidic group) of 9.69. With `CN(C)c1cccc2c(S(=O)(=O)[N-]CCN3CCNCCNCCNCC3)cccc12`, the pKa (basic group) is 11.8. On the same count and under the same terms, next, `c1ccc(-c2ccc(NCCN3CCOCC3)nn2)cc1`: 6.74. Same read-out and setting: next, `N[C@H]1C[C@H]2CCCC[C@@H]2C[C@@H]1[NH3+]`: 6.68; `CCCCCCCCCCCCCCN`: 10.6. Consider `CC(=O)C1C(=O)c2ccccc2C1=O`, for which the pKa (basic group) came out at 2.88. For `[O-]c1ncncc1O`, the pKa (acidic group) stood at 11.6 and the pKa (basic group) came to 7.48.

Regarding `CC(=O)N=S(C)C`, for the setting “basic group”, the pKa amounted to 3.16. The same measure, in the same setting: next, `CC(CN(C)C)C(C#N)(c1ccccc1)c1ccccc1` (stereo unspecified): 7.9. In turn, `Cc1ccccc1/C=C/C(=O)O` returned a pKa (acidic group) of 4.5. `c1ccc(CC2=NCCC2)cc1` yielded a pKa (basic group) of 6.9. On the same count and under the same terms, next, `CCCCNCCCCCCNCCCC`: 11.3; `Cc1cc(C)c(CO)c(C)n1`: 7.1. Consider `Cc1ccc(Br)c(C(=O)O)c1`, for which, for the setting “acidic group”, the pKa amounted to 3. On the same count and under the same terms, the result for `Cc1ccc(C(=S)Nc2ccc(F)cc2)cc1` reads 11. Turning to `O=C([O-])c1nccc2ccccc12`, the pKa (basic group) came to 4.97. Turning to `Cc1ccc([N+](=O)[O-])cc1C(=O)O`, the pKa (acidic group) was determined as 3.17.

As for `CCCCCn1ccnc1`, under “basic group”, the pKa was determined as 7.12. On the same count and under the same terms, the result for `CCOC(=O)CC(c1ccccc1)N(C)C` (stereo unspecified) reads 7.66. `CC(c1cccc(Cl)c1)[N+](=O)[O-]` (stereo unspecified) returned a pKa (acidic group) of 7.05.

Compound `CC(=O)c1cc(C(=O)C(C)(C)C)[nH]n1` showed a pKa (acidic group) of 9.7. On the same count and under the same terms, next, `CC(=O)NBr`: 8.1. Where the note is “basic group”, `O=C(Nc1cccnc1)c1ccccc1` had a pKa of 3.8.

The compound `NC(=S)NCc1ccccc1` gave a pKa (basic group) of 0.86.

With `NC(=O)C(N)Cc1c[nH]c2ccccc12` (stereo unspecified), the pKa (basic group) amounted to 7.55. Same read-out and setting: the result for `N#CCCNN` reads 5.91. `NC(=O)C(N)CO` (stereo unspecified) gave a pKa (acidic group) of 7.3. Same read-out and setting: the result for `O=C(O)CCCOC(=O)CCCBr` reads 4.6. In the case of `OCCCCc1ccncc1`, the pKa (basic group) is 6.01. Regarding `CCCCN(C(=O)c1cc([N+](=O)[O-])ccc1O)c1ccc(/N=N/c2ccc3c(c2)OCCOCCOCCOCCOCCO3)cc1`, under “acidic group”, the pKa worked out at 6.3. Under “basic group”, `Nc1cccc2cc3ccccc3nc12` came in with a pKa of 4.4. Still for that read-out and setting: the result for `c1cnc2ccc3[nH+]cccc3c2c1` reads 2.4. For the setting “acidic group”, `O=C(O)COc1ccccc1` had a pKa of 3.15. For the compound `[O-][n+]1cccc2ccccc21`, the pKa (basic group) came out at 0.7. Take `CC1NCCc2c1[nH]c1ccc(Cl)cc21` (stereo unspecified): the pKa (acidic group) is 15.2. Where the note is “acidic group”, `[O-]c1cccc(O)c1` displayed a pKa of 11.3. As for `Brc1cnc2ccccc2c1`, the pKa (basic group) is -0.44.

The compound `CC#CC(=O)O` registered a pKa (acidic group) of 2.63. On the same count and under the same terms, next, `CCN(CC)S(=O)(=O)c1ccsc1C(=O)O`: 2.77. `SCCNCCc1ccccc1`: the pKa (basic group) is 8.11. On the same count and under the same terms, the result for `N=C(c1ccccc1)c1ccccc1` reads 6.82. Under “acidic group”, `O=C([O-])C(CO)[NH2+]Cc1cc(Cl)ccc1O` (stereo unspecified) yielded a pKa of 7.95. For the compound `O=Cc1ccc(-c2cnc(-c3ccccc3)o2)cc1`, where the note is “basic group”, the pKa was found to be 0.57.

Compound `Cc1ccccc1NC(=O)CN` yielded a pKa (basic group) of 7.81.

As for `Cc1cc(C(=O)O)c(C)o1`, the pKa (acidic group) stood at 4.64. Consider `CC(C)N(C)C`, for which, for the setting “basic group”, the pKa amounted to 10.3. On the same count and under the same terms, the result for `Clc1nc2cc3c(cc2[nH]1)CCCC3` reads 2.68. On the same count and under the same terms, the result for `CC(C)(C)NC1CCCCC1` reads 11.3. Still for that read-out and setting: the result for `OC1(c2cc3ccccc3o2)CN2CCC1CC2` (stereo unspecified) reads 8.84.

As for `CCCCN`, the pKa (basic group) came to 10.7. With `Sc1cc[nH+]cc1`, the pKa (acidic group) is 1.43.

Consider `CC1(C)NC(=O)NC1=O`, for which, for the setting “acidic group”, the pKa was 9.19.

Consider `CON(C)C`, for which the pKa (basic group) worked out at 3.65.

Compound `CC(=O)c1ccc(F)cc1` registered a pKa (acidic group) of 18.5. `Cn1cncc1C[C@H]([NH3+])C(=O)[O-]` had a pKa (basic group) of 6.53.

In the case of `COc1cncnc1[O-]`, the pKa (basic group) came out at 8.6.

On to `CSc1cccc(N)c1`, for which the pKa (basic group) turned out to be 4.05.

Take `Oc1ccc2cccc(Cl)c2c1`: the pKa (acidic group) was found to be 8.69. On the same count and under the same terms, next, `CCSC(C)C(=O)O` (stereo unspecified): 3.8. Consider `Cc1nnc(C)c(C)n1`, for which, for the setting “basic group”, the pKa was found to be 2.85. Regarding `Oc1ccc2ccncc2c1`, the pKa is, setting by setting: (acidic group) 8.88; (basic group) 5.7.

Compound `C[n+]1cccc2c(O)cccc21` came in with a pKa (acidic group) of 6.12.

Where the note is “basic group”, `CN(C)CCNCCN` registered a pKa of 9.91.

For the setting “basic group”, `Nc1ccc2[nH]c[nH+]c2c1` had a pKa of 3.07. The same measure, in the same setting: next, `[NH3+]CCCCCc1cccnc1`: 5.61. The same measure, in the same setting: next, `Cc1ccc2c(c1)c1c3n2CCN=C3CCC1`: 8.57. As to `C[n+]1ccc2c(O)cccc2c1`, the pKa (acidic group) came to 6.9. Still for that read-out and setting: the result for `CC1(C)CC=CC(=O)C1` reads 12.4.

Consider `C1CN2CC[C@@H]3OC[C@H]1[C@@H]32`, for which, for the setting “basic group”, the pKa was found to be 9.44. On the same count and under the same terms, next, `CCCCCN(CC(C)O)CC(C)O` (stereo unspecified): 9.

Compound `Nc1ccc2cccnc2c1` yielded a pKa (basic group) of 6.65. The same measure, in the same setting: next, `[S-]c1cccc2cccnc12`: 8.29. In turn, `Cc1nc2ccccc2c(NCCC[NH+](C)C)c1[N+](=O)[O-]` gave a pKa (basic group) of 5.35. Where the note is “acidic group”, `CC(=O)C(Cc1ccc(Cl)cc1)C(C)=O` returned a pKa of 10.2. Regarding `CO[n+]1ccccc1O`, under “acidic group”, the pKa was -1.3. `[S-]c1nccc2ccccc12` registered a pKa (basic group) of 10.8. On to `CCC(N)(CC)CC`, for which, for the setting “basic group”, the pKa was 10.9. Take `NC1CCN(Cc2ccccc2)CC1`: the pKa (basic group) worked out at 9.79. In turn, `CC[NH+](CC)CCCNC(=O)/C=N/O` displayed a pKa (acidic group) of 8.75. With `NCCCCCCC(=O)[O-]`, the pKa (basic group) is 10.9. `CC(C)=CC(=O)/C=N/O`: the pKa (acidic group) turned out to be 8.9. On the same count and under the same terms, the result for `O=C(O)C[NH+](CC(=O)O)Cc1cc(Cl)cc(C[NH+](CC(=O)O)CC(=O)O)c1O` reads 2.

As to `CC[C@H]1CN2CC[C@@H]1C[C@H]2[C@H](O)c1ccnc2ccc(OC)cc12`, the pKa (basic group) amounted to 8.67. As for `C[N+](C)(C)O`, where the note is “acidic group”, the pKa was 4.65. For the compound `COc1cc(S(C)=O)ccc1-c1nc2ncncc2[nH]1` (stereo unspecified), the pKa by setting is: (acidic group) 8.91; (basic group) 2.69.

Consider `OCO`, for which the pKa (acidic group) was 12.8.

The compound `O=C([O-])c1ccc([N+](=O)[O-])cc1O` registered a pKa (acidic group) of 10.3. Turning to `CC(C)C(N)C(=O)O` (stereo unspecified), for the setting “basic group”, the pKa was found to be 9.58. For the setting “acidic group”, `Cc1ccc(C(=O)O)[nH]1` gave a pKa of 5. In the case of `CN(C)c1ncc([N+](=O)[O-])s1`, the pKa (basic group) worked out at 0.48. With `O=C(O)c1ccccc1Cl`, under “acidic group”, the pKa came out at 2.95. Regarding `c1ccc(-c2ccc3nc(CN4CCOCC4)cn3n2)cc1`, the pKa (basic group) was found to be 6.25. Same read-out and setting: next, `O=C([O-])/C=C/c1c[nH]cn1`: 5.85. `CCCC[Se](=O)O` came in with a pKa (acidic group) of 5.29. The compound `N[C@H]1CCC[C@H](O)C1` registered a pKa (basic group) of 10.1. For the compound `Nc1ccc(S(=O)(=O)Nc2cccnc2)cc1`, the pKa stood at 7.89 (acidic group) and 3 (basic group). `S=C(Nc1ccc(Cl)c(Cl)c1)c1cccc(Br)c1` gave a pKa (acidic group) of 9.26. `C[C@@H](N)C(=O)N1CCC[C@H]1C(=O)[O-]` yielded a pKa (basic group) of 8.38. For the compound `O/N=C/c1ccccc1O`, the pKa came to 9.21 (acidic group) and 1.37 (basic group). As to `Cc1ccc2[nH]cnc2c1`, the pKa (basic group) came to 5.81. On to `Nc1cc[nH+]c([O-])n1`, for which, where the note is “basic group”, the pKa came to 4.61. Compound `Cn1c(=S)[nH]c2cncnc21` displayed a pKa (acidic group) of 7.48. Same read-out and setting: next, `O/C(=C\c1ccccc1)c1ccco1`: 8.5; `CC(C)Oc1ccc(C(=O)O)cc1`: 4.57. Regarding `FC(F)(F)c1cccc2ncccc12`, the pKa (basic group) amounted to 3.09.
